Laboratory results taken from ChEMBL document CHEMBL1158330, “Two new puriniums and three new pyrimidines from Heterostemma brownii” (J Nat Prod, 1997).

What was measured:
MOLT-4 [1] = assay: Cytotoxicity against human MOLT4 cells at 1000 uM after 72 hrs by MTT assay relative to control; format: functional; conditions: MOLT-4, 72 h
Huh-7 [2] = assay: Cytotoxicity against human HuH7 cells after 72 hrs by MTT assay; format: functional, cell-based; conditions: Huh-7, 72 h
K562 [3] = assay: Cytotoxicity against human K562 cells at 100 uM after 72 hrs by MTT assay relative to control; format: functional; conditions: K562, 72 h
Huh-7 [4] = assay: Cytotoxicity against human HuH7 cells at 1 uM after 72 hrs by MTT assay relative to control; format: functional; conditions: Huh-7, 72 h
[5] = Cytotoxicity against human HCE6 cells at 1 uM after 72 hrs by MTT assay relative to control; format: functional; conditions: HCE6, 72 h
K562 [6] = assay: Cytotoxicity against human K562 cells at 1 uM after 72 hrs by MTT assay relative to control; format: functional; conditions: K562, 72 h
[7] = Cytotoxicity against human HCE6 cells after 72 hrs by MTT assay; format: functional, cell-based; conditions: HCE6, 72 h
HL-60 [8] = assay: Cytotoxicity against human HL60 cells at 100 uM after 72 hrs by MTT assay relative to control; format: functional; conditions: HL-60, 72 h
HL-60 [9] = assay: Cytotoxicity against human HL60 cells at 1000 uM after 72 hrs by MTT assay relative to control; format: functional; conditions: HL-60, 72 h
MOLT-4 [10] = assay: Cytotoxicity against human MOLT4 cells at 1 uM after 72 hrs by MTT assay relative to control; format: functional; conditions: MOLT-4, 72 h
Huh-7 [11] = assay: Cytotoxicity against human HuH7 cells at 1000 uM after 72 hrs by MTT assay relative to control; format: functional; conditions: Huh-7, 72 h
MOLT-4 [12] = assay: Cytotoxicity against human MOLT4 cells at 100 uM after 72 hrs by MTT assay relative to control; format: functional; conditions: MOLT-4, 72 h
[13] = Cytotoxicity against human HCE6 cells at 1000 uM after 72 hrs by MTT assay relative to control; format: functional; conditions: HCE6, 72 h
K562 [14] = assay: Cytotoxicity against human K562 cells at 10 uM after 72 hrs by MTT assay relative to control; format: functional; conditions: K562, 72 h
K562 [15] = assay: Cytotoxicity against human K562 cells after 72 hrs by MTT assay; format: functional, cell-based; conditions: K562, 72 h
HL-60 [16] = assay: Cytotoxicity against human HL60 cells at 1 uM after 72 hrs by MTT assay relative to control; format: functional; conditions: HL-60, 72 h
K562 [17] = assay: Cytotoxicity against human K562 cells at 100 nM after 72 hrs by MTT assay relative to control; format: functional; conditions: K562, 72 h
[18] = Cytotoxicity against human HCE6 cells at 100 uM after 72 hrs by MTT assay relative to control; format: functional; conditions: HCE6, 72 h
Huh-7 [19] = assay: Cytotoxicity against human HuH7 cells at 10 uM after 72 hrs by MTT assay relative to control; format: functional; conditions: Huh-7, 72 h
Huh-7 [20] = assay: Cytotoxicity against human HuH7 cells at 100 nM after 72 hrs by MTT assay relative to control; format: functional; conditions: Huh-7, 72 h
[21] = Cytotoxicity against human HCE6 cells at 10 uM after 72 hrs by MTT assay relative to control; format: functional; conditions: HCE6, 72 h
[22] = Cytotoxicity against human HCE6 cells at 100 nM after 72 hrs by MTT assay; format: functional; conditions: HCE6, 72 h
MOLT-4 [23] = assay: Cytotoxicity against human MOLT4 cells at 100 nM after 72 hrs by MTT assay relative to control; format: functional; conditions: MOLT-4, 72 h
MOLT-4 [24] = assay: Cytotoxicity against human MOLT4 cells at 10 uM after 72 hrs by MTT assay relative to control; format: functional; conditions: MOLT-4, 72 h
HL-60 [25] = assay: Cytotoxicity against human HL60 cells at 10 uM after 72 hrs by MTT assay relative to control; format: functional; conditions: HL-60, 72 h
HL-60 [26] = assay: Cytotoxicity against human HL60 cells at 100 nM after 72 hrs by MTT assay relative to control; format: functional; conditions: HL-60, 72 h
Huh-7 [27] = assay: Cytotoxicity against human HuH7 cells at 100 uM after 72 hrs by MTT assay relative to control; format: functional; conditions: Huh-7, 72 h
MOLT-4 [28] = assay: Cytotoxicity against human MOLT4 cells after 72 hrs by MTT assay; format: functional, cell-based; conditions: MOLT-4, 72 h
K562 [29] = assay: Cytotoxicity against human K562 cells at 1000 uM after 72 hrs by MTT assay relative to control; format: functional; conditions: K562, 72 h
HL-60 [30] = assay: Cytotoxicity against human HL60 cells after 72 hrs by MTT assay; format: functional, cell-based; conditions: HL-60, 72 h

| SMILES | viability at 1000 µM (MOLT-4 [1]) [%] | IC50 (Huh-7 [2]) [µM] | viability at 100 µM (K562 [3]) [%] | viability at 1 µM (Huh-7 [4]) [%] | viability at 1 µM [5] [%] | viability at 1 µM (K562 [6]) [%] | IC50 [7] [µM] | viability at 100 µM (HL-60 [8]) [%] | viability at 1000 µM (HL-60 [9]) [%] | viability at 1 µM (MOLT-4 [10]) [%] | viability at 1000 µM (Huh-7 [11]) [%] | viability at 100 µM (MOLT-4 [12]) [%] | viability at 1000 µM [13] [%] | viability at 10 µM (K562 [14]) [%] | IC50 (K562 [15]) [µM] | viability at 1 µM (HL-60 [16]) [%] | viability at 0.1 µM (K562 [17]) [%] | viability at 100 µM [18] [%] | viability at 10 µM (Huh-7 [19]) [%] | viability at 0.1 µM (Huh-7 [20]) [%] | other results |
| --- | --- | --- | --- | --- | --- | --- | --- | --- | --- | --- | --- | --- | --- | --- | --- | --- | --- | --- | --- | --- | --- |
| COc1nc(N(C)C)nc2c1[n+](C)cn2C [HETEROMINE A] | 5.6 | 71.8 | 33.5 | 102 | 87.4 | 107 | 4.08 | 8.2 | 5.7 | 90.7 | 11.1 | 24.8 | 1.7 | 49.7 | 9.88 | 99.3 | 94.3 | 8.2 | 91.1 | 97.3 | viability at 10 µM [21]: 26.2%; viability at 0.1 µM [22]: 92.4%; viability at 0.1 µM (MOLT-4 [23]): 94.7%; viability at 10 µM (MOLT-4 [24]): 54.8%; viability at 10 µM (HL-60 [25]): 42.7%; viability at 0.1 µM (HL-60 [26]): 94.5%; viability at 100 µM (Huh-7 [27]): 43.1%; IC50 (MOLT-4 [28]): 14.4 µM; viability at 1000 µM (K562 [29]): 5.9%; IC50 (HL-60 [30]): 7.43 µM |
| CNc1nc(OC)c2c(n1)n(C)c[n+]2C [HETEROMINE B] | 17.4 | 464 | 40.4 | 103 | 82.2 | 95.5 | 36 | 20.3 | 14.9 | 91 | 28.8 | 35.9 | 10.6 | 88.2 | 62.9 | 99.1 | 96.8 | 22.1 | 94.3 | 104 | viability at 10 µM [21]: 85%; viability at 0.1 µM [22]: 82.2%; viability at 0.1 µM (MOLT-4 [23]): 107%; viability at 10 µM (MOLT-4 [24]): 86%; viability at 10 µM (HL-60 [25]): 72.6%; viability at 0.1 µM (HL-60 [26]): 114%; viability at 100 µM (Huh-7 [27]): 92.5%; IC50 (MOLT-4 [28]): 52.3 µM; viability at 1000 µM (K562 [29]): 27.6%; IC50 (HL-60 [30]): 27 µM |
